For one compound, Activity and IC50 results are on record in ChEMBL document CHEMBL4619706, “Synthesis, biological evaluation and molecular modeling study of [1,2,4]-Triazolo[4,3-c]quinazolines: New class of EGFR-TK inhibitors” (Bioorg Med Chem, 2020).

The subject of assay [1] is MCF7. The assay is described as follows: Cell cycle arrest in human MCF7 cells assessed as accumulation of cells at G0/G1 phase at IC50 after 24 hrs by propidium iodide/RNase staining based FACSCalibur flow cytometry analysis (reference value: 57.28 %). The class given is functional.
Assay [2] deals with MCF7. The assay is described as follows: Induction of apoptosis in human MCF7 cells assessed as early apoptotic cells after 24 hrs by Annexin V-FITC/propidium iodide double staining based FACSCalibur flow cytometry analysis (reference value: 1.22 %). In kind it is functional. A general note: In flow cytometry, cells or beads pass a laser one at a time.
For assay [3], the system named is MCF7. The assay is described as follows: Induction of apoptosis in human MCF7 cells assessed after 24 hrs by Annexin V-FITC/propidium iodide double staining based FACSCalibur flow cytometry analysis. In kind it is functional, cell-based.
The test system of another assay is PC-3. The assay is described as follows: Anticancer activity against human PC3 cells assessed as inhibition of cell growth incubated for 24 hrs by MTT assay. In kind it is functional, cell-based. The settings on record: PC-3, 24 h. (In general: Formazan colour is commonly taken as a measure of viable cells.)
For assay [4], the system named is MCF7. The assay is described as follows: Cell cycle arrest in human MCF7 cells assessed as accumulation of cells at pre-G1 phase at IC50 after 24 hrs by propidium iodide/RNase staining based FACSCalibur flow cytometry analysis (reference value: 2.11 %). The class given is functional.
Another assay relates to HeLa. The assay is described as follows: Anticancer activity against human HeLa cells assessed as inhibition of cell growth incubated for 24 hrs by MTT assay. In kind it is functional, cell-based.
Assay [5] relates to MCF7. The assay is described as follows: Cell cycle arrest in human MCF7 cells assessed as accumulation of cells at S phase at IC50 after 24 hrs by propidium iodide/RNase staining based FACSCalibur flow cytometry analysis (reference value: 26.49 %). In kind it is functional.
Assay [6] has as its system MCF7. The assay is described as follows: Induction of apoptosis in human MCF7 cells assessed as late apoptotic cells after 24 hrs by Annexin V-FITC/propidium iodide double staining based FACSCalibur flow cytometry analysis (reference value: 0.43 %). In kind it is functional.
Assay [7] relates to MCF7. The assay is described as follows: Cell cycle arrest in human MCF7 cells assessed as accumulation of cells at G2/M phase at IC50 after 24 hrs by propidium iodide/RNase staining based FACSCalibur flow cytometry analysis (reference value: 16.23 %). In kind it is functional.
The next assay concerns HepG2. The assay is described as follows: Anticancer activity against human HepG2 cells assessed as inhibition of cell growth incubated for 24 hrs by MTT assay. The settings on record: HepG2, 24 h. In kind it is functional, cell-based.
The next assay deals with HCT-116. The assay is described as follows: Anticancer activity against human HCT116 cells assessed as inhibition of cell growth incubated for 24 hrs by MTT assay. The class given is functional, cell-based. The settings on record: HCT-116, 24 h.
For assay [8], the system named is MCF7. The assay is described as follows: Induction of apoptosis in human MCF7 cells assessed as necrotic cells after 24 hrs by Annexin V-FITC/propidium iodide double staining based FACSCalibur flow cytometry analysis (reference value: 0.46 %). The class given is functional.
Assay [9] relates to MCF7. The assay is described as follows: Anticancer activity against human MCF7 cells assessed as inhibition of cell growth incubated for 24 hrs by MTT assay. In kind it is functional, cell-based. The settings on record: MCF7, 24 h.
In assay [10] the target is Epidermal growth factor receptor (Homo sapiens, UniProt P00533). The assay is described as follows: Inhibition of human EGFR-TK using PTK substrate after 40 mins in presence of ATP by Kinase-Glo luminescent assay.
Assay [11] has as its system MCF7. The assay is described as follows: Induction of apoptosis in human MCF7 cells assessed as viable cells after 24 hrs by Annexin V-FITC/propidium iodide double staining based FACSCalibur flow cytometry analysis (reference value: 97.89 %). In kind it is functional.
The test system of assay [12] is MCF7. The assay is described as follows: Induction of apoptosis in human MCF7 cells assessed as cumulative apoptosis after 24 hrs by Annexin V-FITC/propidium iodide double staining based FACSCalibur flow cytometry analysis (reference value: 2.11 %). In kind it is functional.

Epidermal growth factor receptor, sequence (P00533 whole entry): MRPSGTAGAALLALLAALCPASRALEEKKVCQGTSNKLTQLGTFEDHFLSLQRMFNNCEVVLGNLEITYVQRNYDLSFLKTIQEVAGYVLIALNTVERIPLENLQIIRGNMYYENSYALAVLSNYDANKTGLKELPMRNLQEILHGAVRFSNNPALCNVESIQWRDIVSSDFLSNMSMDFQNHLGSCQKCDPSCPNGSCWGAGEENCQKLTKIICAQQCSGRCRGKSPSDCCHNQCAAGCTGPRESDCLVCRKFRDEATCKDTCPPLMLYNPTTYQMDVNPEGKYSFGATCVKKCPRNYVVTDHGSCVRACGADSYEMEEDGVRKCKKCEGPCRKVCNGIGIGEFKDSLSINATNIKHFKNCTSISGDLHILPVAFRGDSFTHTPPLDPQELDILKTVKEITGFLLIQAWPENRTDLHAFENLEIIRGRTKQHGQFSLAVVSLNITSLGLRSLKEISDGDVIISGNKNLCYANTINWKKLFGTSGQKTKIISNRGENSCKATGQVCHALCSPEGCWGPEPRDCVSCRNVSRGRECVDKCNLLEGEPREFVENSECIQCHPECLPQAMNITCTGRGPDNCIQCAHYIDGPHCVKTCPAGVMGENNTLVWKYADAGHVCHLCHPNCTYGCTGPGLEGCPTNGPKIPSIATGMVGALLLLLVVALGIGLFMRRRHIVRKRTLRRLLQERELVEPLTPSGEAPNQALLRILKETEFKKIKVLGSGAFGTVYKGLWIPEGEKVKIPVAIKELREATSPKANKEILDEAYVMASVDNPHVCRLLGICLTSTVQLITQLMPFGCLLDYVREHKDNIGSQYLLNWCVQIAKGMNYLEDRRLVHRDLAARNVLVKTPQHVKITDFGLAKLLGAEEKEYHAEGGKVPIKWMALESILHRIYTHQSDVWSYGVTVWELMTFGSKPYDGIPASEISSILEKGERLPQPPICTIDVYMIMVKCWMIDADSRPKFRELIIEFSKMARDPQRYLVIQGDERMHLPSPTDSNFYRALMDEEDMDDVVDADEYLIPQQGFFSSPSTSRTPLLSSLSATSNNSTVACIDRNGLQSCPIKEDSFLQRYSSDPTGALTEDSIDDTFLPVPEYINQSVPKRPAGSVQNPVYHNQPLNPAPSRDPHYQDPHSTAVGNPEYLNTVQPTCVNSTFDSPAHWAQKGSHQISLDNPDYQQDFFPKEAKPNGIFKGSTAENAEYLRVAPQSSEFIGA

For `Nc1nc(Nc2nnc3c4ccccc4nc(Sc4ccc(Br)cc4)n23)cs1`, the Activity in the assay on MCF7 [1] was 35.76%; in the assay on MCF7 [2], 7.58%; in the assay with MCF7 [3] it was “Dose-dependent effect”; in the assay with MCF7 [4], 27.15%; with MCF7 [5], 22.81%; in the assay on MCF7 [6], 17.3%. Also, the Activity came out at 41.43% with MCF7 [7], 2.27% in the assay with MCF7 [8], 72.85% in the assay on MCF7 [11] and 27.15% with MCF7 [12]. The IC50 with PC-3 amounted to 10.5 µM; in the assay on HeLa, 13.4 µM; in the assay with HepG2 it was 10.3 µM; in the assay with HCT-116, 11.5 µM; in the assay with MCF7 [9], 8.9 µM; in assay [10] it was 0.69 µM.

For orientation: IC50 means the midpoint of a concentration-inhibition curve.
